According to patent US20180194822A1, “DISRUPTION OF THE INTERACTION BETWEEN AMYLOID BETA PEPTIDE AND DIETARY LIPIDS” (THE TRUSTEES OF COLUMBIA UNIVERSITY IN THE CITY OF NEW YORK, priority 2015, published 2018):
Entries after “also recorded” stand apart in the source; their conditions may differ.

How the values were obtained:
[1] = system: APPsw+ mice; assay: Novel object recognition (NOR) and activity during NOR training after intranasal SDPC; format: in vivo, mouse; details: 30 days intranasal escalated dose (0.5 then 2 mg/kg), SDPC vs saline treated APPsw+
[2] = system: APPsw+ mice; assay: Nesting behavior after intranasal SDPC; format: in vivo, mouse; details: 10 days intranasal low dose 0.5 mg/kg every other day, vs saline treated APPsw+
Description: FIGS. 4A-4D. 10 days treatment with low dose SDPC. (A) After 10 days treatment (Tx) with low dose phosphatidylcholine (PC) containing docosahexaenoyl (22:6) and stearoyl (18:0) acyl chains, 18:0-22:6 PC; 1-stearoyl-2-docosahexaenoyl-sn-glycero-3-phosphocholine (CAS Number 59403-52-0; Synonyms: 1-octadecanoyl-2-(4Z,7Z,10Z,13Z,16Z,19Z-docosahexaenoyl)-sn-glycero-3-phosphocholine and PC(18:0/22:6(4Z,7Z,10Z,13Z,16Z,19Z))) (SDPC) intranasally, nesting score was assessed as described before (114). The number of nestlettes (from 3 initially placed in cage) was estimated and exact weight of remaining nestlettes was determined in grams (g) from initial 3 nestlettes (approximately 2 g). (B) Activity during novel object recognition (NOR) training was assessed after 10 days intranasal SDPC. […] (D) Activity during Open Field testing 24 hours after NOR training (note, no difference in novel object discrimination (NOD) index was found. Standard error is shown for means of Saline treated APPsw+(control) (n=4); SDPC treated APPsw+(n=5) and wild type receiving no treatment (n=4). Significance was determined for […] using Student's t-test.
FIGS. 5A-5B. […] (A) After 30 days treatment (Tx) with low dose SDPC intranasally, nesting score was assessed as described (114). […] (B) Activity during NOR training was assessed after 10 days intranasal SDPC. […] Significance was determined for […] using Student's t-test. […]

[3] = system: APPsw+ mice; assay: Novel object recognition (NOR) and activity during NOR training after intranasal SDPC; format: in vivo, mouse
Description: (§1) FIGS. 4A-4D. 10 days treatment with low dose SDPC. (A) After 10 days treatment (Tx) with low dose phosphatidylcholine (PC) containing docosahexaenoyl (22:6) and stearoyl (18:0) acyl chains, 18:0-22:6 PC; 1-stearoyl-2-docosahexaenoyl-sn-glycero-3-phosphocholine (CAS Number 59403-52-0; Synonyms: 1-octadecanoyl-2-(4Z,7Z,10Z,13Z,16Z,19Z-docosahexaenoyl)-sn-glycero-3-phosphocholine and PC(18:0/22:6(4Z,7Z,10Z,13Z,16Z,19Z))) (SDPC) intranasally, nesting score was assessed as described before (114). The number of nestlettes (from 3 initially placed in cage) was estimated and exact weight of remaining nestlettes was determined in grams (g) from initial 3 nestlettes (approximately 2 g). (B) Activity during novel object recognition (NOR) training was assessed after 10 days intranasal SDPC. Grooming behavior, free rearing, wall rearing and center crossing events are shown and were summed in total events. (C) Time spent with each identical object during NOR training. (D) Activity during Open Field testing 24 hours after NOR training (note, no difference in novel object discrimination (NOD) index was found. Standard error is shown for means of Saline treated APPsw+(control) (n=4); SDPC treated APPsw+(n=5) and wild type receiving no treatment (n=4). Significance was determined for p>0.05 using Student's t-test.
FIGS. 5A-5B. Nesting and activity after 30 days treatment with escalating dose SDPC. (A) After 30 days treatment (Tx) with low dose SDPC intranasally, nesting score was assessed as described (114). The number of nestlettes remaining (from 3 initially placed in cage) was estimated and exact weight of remaining nestlettes was determined in grams (g remaining) from initial 3 nestlettes (approximately 2 g). (B) Activity during NOR training was assessed after 10 days intranasal SDPC. Grooming behavior, free rearing, wall rearing and center crossing events were summed in total events. Standard error is shown for means of Saline treated APPsw+(control) (n=4); SDPC treated APPsw+(n=5) and wild type receiving no treatment (n=4). Significance was determined for […] using Student's t-test.
FIGS. 6A-6B. 30 days treatment with escalating dose SDPC. (A) Mice were placed in a box with two identical objects for 10 minutes on the training day 1. […] One object was replaced with a novel object for testing (NOD index). The same data is shown to scale in FIG. 6B (Testing (immediate)). Twenty-four hours later (Testing (24 hours)), mice were placed in the same context with one of the original identical objects (Familiar) and a second novel object (Novel). The time spent with each object was recorded. (B) For testing, novel object discrimination (NOD index) is assessed using the equation [(time novel)/(time familiar+time novel)].
NOD index of 0.5 represents equal time with each object. NOD>0.5 represents more time spent with novel object. Standard error is shown for means of Saline treated APPsw+(control) (n=4); SDPC treated APPsw+(n=5) and wild type receiving no treatment (n=4). Significance was determined for p>0.05 using Student's t-test.
SDPC was obtained from Avanti Polar Lipids (850472C) in chloroform, dried under vacuum conditions and resuspended in 0.9% saline (0.9% sodium chloride injection, USP, NDC 0409-7983-61, Hospira) containing 0.2% (weight:volume) methyl cellulose (average Mn 40,000, viscosity: 400 cP, CAS 9004-67-5, Sigma-Aldrich 274429) to aid in solubilization. A control solution of 0.9% saline containing 0.2% methyl cellulose was prepared at the same time without SDPC. A concentration of 3 mg/ml was used for doses 1-15 and 12 mg/ml was used for doses 16-18 (FIG. 3). Brief (3-5 minutes) bath sonication was used to improve solubility of 12 mg/ml concentration.
Mice were treated for 10 days at a low dose of SDPC intranasally administered 2.5 uL each nostril (5 μL total dose) for 0.5 mg/kg every other day assuming average mouse weight of 30 g (0.03 kg) (FIG. 3). […]

[4] = system: APPsw+ mice; assay: Open Field testing after intranasal SDPC; format: in vivo, mouse; details: 10 days intranasal low dose; does not reach significance
Description: as §1, with “t-test. […]” for “t-test.”

[5] = molecular target: Aβ:ApoE:lipid binding complex (Homo sapiens, UniProt P05067); assay: ApoE binding assay: fluorescent Aβ42 on ApoE-coated plates in presence of lipid; design: SensoLyte Fluorescent β-Amyloid1-42 Sampler Kit, Anaspec; HiLyte Fluor (fluorescent label); purchased ApoE: rPeptide; labelled Aβ: Anaspec; details: only at very high concentrations of Aβ
Description: Plates were prepared as above and incubated with a constant amount of apolipoprotein E (ApoE, rPeptide) at 12.5 pmol/well FIG. 2A or 4 pmol/well FIG. 2B for 1 hour at room temperature with shaking. Plates were then blocked for 1 hour and washed with PB ST. Aβ labled with HiLyte (Anaspec) was prepared as above and mixed with increasing amount of lipid in constant concentration of NOG (0.0034%) in SuperBlock Blocking buffer and incubated overnight at 4° C. Binding was read as above at 503/528 excitation/emission).
Assays were done in triplicate wells and reported as mean+/−standard error. Binding kinetics and best fit curve fitting were accomplished using Prism Graphpad software.
Specific binding was determined by subtracting non-specific binding to the plate in absence of ApoE (no ApoE, 0).

[6] = molecular target: T1, Aβ42 peptide fluorescently tagged with FAM (Homo sapiens, UniProt P05067); assay: Lipid binding assay: Aβ42-FAM on lipid-coated maleic anhydride plates
T1 construct: SensoLyte Fluorescent β-Amyloid1-42 Sampler Kit, Anaspec; purchased Anaspec SensoLyte Fluorescent β-Amyloid1-42 Sampler Kit (catalogue number not given)
Description: Maleic Anhydride Activated plates (Pierce Amine-binding, 96-well plates, Thermo Scientific) were washed in wash buffer (PBS: Phosphate buffered saline, 0.15 M sodium chloride, pH 7.2 containing 0.05% Tween-20 Detergent, PBST, Thermo Scientific) 4 times to activate reactive maleic anhydride functional group. Amine containing lipids were PE containing docosahexaenoyl (22:6) and stearoyl (18:0) acyl chains (22:6/18:0 PE) or two stearoyl acyl chains (di18:0 PE) were from Avanti Polar Lipids. 22:6/18:0 PE was obtained in chloroform, dried down and solubilized at 200 pmol/μL in 1% n-octylglucoside (NOG, Santa Cruz) in PBS and sonicated for 5 minutes. di18:0 PE was obtained as a powder, solubilized at 200 pmol/μl in 1% NOG and bath sonicated for 5 minutes. […] Plates were then washed 4 times in PBST and fluorescence was detected using Tecan Infinite 200 at wavelengths 494/521 (excitation, emission) using the Optimal Gain setting. […]
(§2) Lipid containing long chain polyunsaturated fatty acid 22:6, docosahexaenoic acid (DHA) and an amine containing headgroup, phosphatidylethanoloamine (PE) was bound to maleic anhydride activated plates which bind to free primary amine functional groups at neutral and alkaline pH. […] Specific binding was calculated by subtracting background binding of di18:0 PE.

[7] = molecular target: T2, Aβ42-FAM bound to lipids containing 22:6 (Homo sapiens, UniProt P05067); assay: Competition of Aβ42-FAM binding to plate-bound 22:6 lipid; details: competitor 5×, 1 μM
T2 construct: SensoLyte Fluorescent β-Amyloid1-42 Sampler Kit, Anaspec; purchased Anaspec SensoLyte Fluorescent β-Amyloid1-42 Sampler Kit (catalogue number not given)
Description: Maleic Anhydride Activated plates (Pierce Amine-binding, 96-well plates, Thermo Scientific) were washed in wash buffer (PBS: Phosphate buffered saline, 0.15 M sodium chloride, pH 7.2 containing 0.05% Tween-20 Detergent, PBST, Thermo Scientific) 4 times to activate reactive maleic anhydride functional group. Amine containing lipids were PE containing docosahexaenoyl (22:6) and stearoyl (18:0) acyl chains (22:6/18:0 PE) or two stearoyl acyl chains (di18:0 PE) were from Avanti Polar Lipids. […] Plates were then washed 4 times in PBST and fluorescence was detected using Tecan Infinite 200 at wavelengths 494/521 (excitation, emission) using the Optimal Gain setting.
Scrambled Aβ or unlabeled Aβ42 peptides (Anaspec) were diluted to 100 μM as above and then diluted in SuperBlock Blocking buffer to 1 μM, incubated for 1 hour at room temperature. Plates were washed and FAM fluorescence was read as above.
as §2

[8] = 30 days intranasal escalated dose

With CC/C=C\C/C=C\C/C=C\C/C=C\C/C=C\C/C=C\CCC(=O)O[C@H](COC(=O)CCCCCCCCCCCCCCCCC)COP(=O)([O-])OCC[N+](C)(C)C [SDPC, 1-stearoyl-2-docosahexaenoyl-sn-glycero-3-phosphocholine] the “number of wall rears and total activity events” value [1] was “significant improvement”, the nesting behavior [2] was “trend toward improvement; also recorded: non-significant trend for improvement” and the “NOR discrimination (NOD index), tested 24 hours after training” value ([3]; 10 days intranasal low dose) was “no discrimination was found; also recorded: no difference”. For the same molecule, the “activity during NOR training (wall rearing, free rearing, total activity level)” value ([3]; 10 days intranasal low dose 0.5 mg/kg every other day, vs saline treated APPsw+, 0.5 mg/kg) was “trend toward improvement; also recorded: non-significant trend for improvement”, the “exploration: time spent with identical objects during NOR training” value ([3]; 10 days intranasal low dose 0.5 mg/kg every other day, 0.5 mg/kg) was “trend toward improved exploratory behavior; also recorded: non-significant trend toward exploration activity” and the “NOR deficits: time spent with a novel object” value [3, 8] was “significant amelioration”. For the same molecule, the “novel object discrimination index (NOD index)” value [3, 8] was “significant changes were not observed; also recorded: trend for amelioration”, the “discrimination of one displaced identical object (hippocampal function), training day 2” value ([3]; 30 days intranasal escalating dose) was “no discrimination was determined” and the “activity in the open field test following NOR testing” value [4] was “continued improvement of activity level; also recorded: restored to the level of wild type non-treated mice”.

With CCCCCCCCCCCCCCCCCC(=O)OC[C@H](COP(=O)(O)OCCN)OC(=O)CCCCCCCCCCCCCCCCC [di18:0 PE] the “Aβ42-FAM binding to apoE in presence of lipid” value [5] was “only very minimally”, the “binding of Aβ42-FAM to plate-bound lipid” value ([6]; for di18:0: concentrations 10,000 pmol/well and below) was “very low binding activity” and the “binding of Aβ42-FAM to plate-bound lipid at the highest concentrations” value ([6]; highest lipid concentrations (above 10,000 pmol/well)) was “modest binding”.

“unlabeled Aβ42 peptide: unlabeled Aβ42 peptide (Anaspec) used as competitor” was tested, and the “disruption of Aβ42-FAM binding to 22:6 lipid by competitor peptide” value [7] was “competitively disrupted”.
